Active and inactive are the calls of the source.
Key:
Caspase-3 = target: T1, Caspase-3 (Homo sapiens, UniProt P42574); type: functional;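 also: Dose-response selectivity test against caspase-3 for candidate inhibitors of sentrin-specific proteases (SENPs)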
T1 sequence (P42574 whole entry): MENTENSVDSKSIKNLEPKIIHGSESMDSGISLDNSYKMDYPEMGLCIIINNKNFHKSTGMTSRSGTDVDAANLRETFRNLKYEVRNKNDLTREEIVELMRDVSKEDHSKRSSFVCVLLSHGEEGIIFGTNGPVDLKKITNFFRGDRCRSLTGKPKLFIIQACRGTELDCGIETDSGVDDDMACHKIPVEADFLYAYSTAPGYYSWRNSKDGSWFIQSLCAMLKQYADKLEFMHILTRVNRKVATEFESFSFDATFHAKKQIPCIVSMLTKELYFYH

[1] = target: T2, Sentrin-specific protease 7 (Homo sapiens, UniProt Q9BQF6); type: functional;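 also: Luminescence-based dose-response confirmation of ultra-high-throughput screening hits, measuring inhibition of SENP7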
T2 sequence (Q9BQF6 whole entry): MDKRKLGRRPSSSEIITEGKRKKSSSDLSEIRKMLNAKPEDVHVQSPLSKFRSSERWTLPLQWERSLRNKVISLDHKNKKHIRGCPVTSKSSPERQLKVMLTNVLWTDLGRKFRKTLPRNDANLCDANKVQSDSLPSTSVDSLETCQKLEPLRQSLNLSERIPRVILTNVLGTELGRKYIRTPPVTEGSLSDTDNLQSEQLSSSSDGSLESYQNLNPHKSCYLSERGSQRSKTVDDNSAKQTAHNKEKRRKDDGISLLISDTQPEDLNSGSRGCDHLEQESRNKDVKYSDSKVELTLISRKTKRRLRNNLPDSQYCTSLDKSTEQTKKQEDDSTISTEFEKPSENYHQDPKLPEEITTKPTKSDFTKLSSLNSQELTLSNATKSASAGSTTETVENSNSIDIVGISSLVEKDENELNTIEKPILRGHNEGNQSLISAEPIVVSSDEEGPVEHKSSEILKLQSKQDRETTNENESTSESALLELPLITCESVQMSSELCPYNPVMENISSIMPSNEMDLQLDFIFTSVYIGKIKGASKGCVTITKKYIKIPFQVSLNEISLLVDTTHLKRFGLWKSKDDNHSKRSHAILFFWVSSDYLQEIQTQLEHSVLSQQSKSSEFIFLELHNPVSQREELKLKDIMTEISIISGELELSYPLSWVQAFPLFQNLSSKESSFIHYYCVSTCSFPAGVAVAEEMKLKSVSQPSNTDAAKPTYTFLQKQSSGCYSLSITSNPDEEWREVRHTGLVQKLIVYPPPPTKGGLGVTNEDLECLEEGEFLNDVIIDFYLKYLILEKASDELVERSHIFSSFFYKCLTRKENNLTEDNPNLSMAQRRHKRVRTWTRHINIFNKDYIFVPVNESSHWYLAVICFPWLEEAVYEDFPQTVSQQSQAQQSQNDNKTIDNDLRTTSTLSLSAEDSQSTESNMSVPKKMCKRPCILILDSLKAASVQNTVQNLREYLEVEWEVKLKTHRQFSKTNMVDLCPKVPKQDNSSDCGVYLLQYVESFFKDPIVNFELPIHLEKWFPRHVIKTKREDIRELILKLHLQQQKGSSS

[2] = target: T3, Sentrin-specific protease 6 (Homo sapiens, UniProt Q9GZR1); type: functional;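 also: Luminescence-based dose-response confirmatory assay of SENP6 inhibition, following up an ultra-high-throughput screen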
T3 sequence (Q9GZR1 whole entry): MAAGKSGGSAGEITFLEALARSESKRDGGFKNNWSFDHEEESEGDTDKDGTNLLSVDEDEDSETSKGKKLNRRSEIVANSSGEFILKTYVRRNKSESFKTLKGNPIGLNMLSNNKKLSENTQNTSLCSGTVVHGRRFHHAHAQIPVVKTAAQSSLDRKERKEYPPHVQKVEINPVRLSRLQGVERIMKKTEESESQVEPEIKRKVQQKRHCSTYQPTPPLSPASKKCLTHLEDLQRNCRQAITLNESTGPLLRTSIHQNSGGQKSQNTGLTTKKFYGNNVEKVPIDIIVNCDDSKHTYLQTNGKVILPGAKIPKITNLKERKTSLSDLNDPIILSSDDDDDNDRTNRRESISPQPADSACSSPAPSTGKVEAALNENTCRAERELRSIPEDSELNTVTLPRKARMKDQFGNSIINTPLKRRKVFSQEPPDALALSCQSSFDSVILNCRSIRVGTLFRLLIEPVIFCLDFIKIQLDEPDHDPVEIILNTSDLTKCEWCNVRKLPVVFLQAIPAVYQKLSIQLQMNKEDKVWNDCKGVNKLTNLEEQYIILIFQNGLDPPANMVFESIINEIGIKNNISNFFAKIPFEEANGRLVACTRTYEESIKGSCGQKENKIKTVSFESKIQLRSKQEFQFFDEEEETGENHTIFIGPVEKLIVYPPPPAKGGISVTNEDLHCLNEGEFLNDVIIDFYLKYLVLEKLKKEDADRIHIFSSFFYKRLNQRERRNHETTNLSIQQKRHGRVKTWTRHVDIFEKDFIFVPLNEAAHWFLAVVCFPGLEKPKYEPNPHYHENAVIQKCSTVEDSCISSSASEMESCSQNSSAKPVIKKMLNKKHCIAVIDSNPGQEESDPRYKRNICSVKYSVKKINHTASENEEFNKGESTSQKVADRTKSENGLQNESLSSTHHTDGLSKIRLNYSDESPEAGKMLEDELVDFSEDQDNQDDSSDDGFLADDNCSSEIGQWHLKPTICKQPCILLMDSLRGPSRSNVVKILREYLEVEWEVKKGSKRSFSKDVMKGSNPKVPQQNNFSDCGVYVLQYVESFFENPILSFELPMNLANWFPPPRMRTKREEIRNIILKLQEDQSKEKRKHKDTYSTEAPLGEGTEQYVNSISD

[3] = target: T4, Sentrin-specific protease 8 (Homo sapiens, UniProt Q96LD8); type: functional;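 also: luminescence read-out of SENP8 inhibition, dose-response confirmation following an ultra-high-throughput screen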
T4 sequence (Q96LD8 whole entry): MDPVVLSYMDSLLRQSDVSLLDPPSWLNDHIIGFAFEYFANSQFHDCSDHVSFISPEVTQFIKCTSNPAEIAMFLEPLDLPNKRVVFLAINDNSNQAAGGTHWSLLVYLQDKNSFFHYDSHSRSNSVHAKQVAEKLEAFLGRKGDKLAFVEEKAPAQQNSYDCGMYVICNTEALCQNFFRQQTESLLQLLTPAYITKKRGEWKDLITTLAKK

[4] = target: T5, High affinity choline transporter 1 (Homo sapiens, UniProt Q9GZV3); test: CHT inhibitors, dose response, cell-based, 5-point CRC, membrane potential dye (AID 504840); type: functional
T5 sequence (Q9GZV3 whole entry): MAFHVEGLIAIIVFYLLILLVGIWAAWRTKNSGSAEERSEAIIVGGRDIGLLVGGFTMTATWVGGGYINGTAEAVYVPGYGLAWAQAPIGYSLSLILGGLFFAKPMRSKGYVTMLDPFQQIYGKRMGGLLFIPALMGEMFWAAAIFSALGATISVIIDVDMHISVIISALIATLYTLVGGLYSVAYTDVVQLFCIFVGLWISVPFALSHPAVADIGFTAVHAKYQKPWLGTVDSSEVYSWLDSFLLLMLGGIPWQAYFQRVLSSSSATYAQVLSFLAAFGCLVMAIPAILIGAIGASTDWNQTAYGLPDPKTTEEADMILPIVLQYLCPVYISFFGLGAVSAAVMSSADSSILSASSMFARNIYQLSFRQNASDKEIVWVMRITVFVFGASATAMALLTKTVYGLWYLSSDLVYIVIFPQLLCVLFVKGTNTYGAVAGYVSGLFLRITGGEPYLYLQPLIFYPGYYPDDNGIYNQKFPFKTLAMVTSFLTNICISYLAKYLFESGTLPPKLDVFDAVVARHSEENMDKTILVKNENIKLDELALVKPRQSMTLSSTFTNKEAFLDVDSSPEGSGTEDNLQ

HeLa = test: HeLa cell cytotoxicity, dose response, cytotoxicity control for MITF activator project, CellTiter-Glo luminescence, cherry-pick samples (AID 540259); type: functional, cell-based; conditions: Homo sapiens
[5] = target: DNA dC->dU-editing enzyme APOBEC-3G (Homo sapiens, UniProt Q9HC16); test: Dose Response confirmation of small molecule APOBEC3G DNA Deaminase Inhibitors via a fluorescence-based single-stranded DNA deaminase assay. [Related pubchem assays (depositor defined):AID493012, AID493028]; type: functional
[6] = target: Induced myeloid leukemia cell differentiation protein Mcl-1 (Homo sapiens, UniProt Q07820); type: functional
[7] = system: Streptococcus sp. 'group A'; test: growth inhibition of control SK(-) GAS strain, dose response, counter-screen for streptokinase expression inhibitor project, luminescence, kanamycin, BacTiterGlo, confirmation (AID 1900); type: functional, organism-based
Streptococcus = test: Group A Streptococcus viability loss, dose response, counter-screen for streptokinase expression inhibitor project, luminescence, BacTiterGlo (AID 1915); type: functional, organism-based;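 also: potency for reduction of bacterial viability or growth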
HEK293 = test: inhibitors of LMP1-driven NF-kB reporter, dose response, cell-based, HEK293, luciferase, cherry-pick (AID 588343); type: functional; conditions: Homo sapiens
Vero = test: cells; type: functional; conditions: Chlorocebus sabaeus
[8] = target: T6, Polyadenylate-binding protein 1 (Homo sapiens, UniProt P11940); test: PABP1 MLLE–PAM2 interaction inhibitors, dose response, miRNA deadenylation inhibitor project, biochemical, fluorescence polarization, Cy5-PAM2 peptide, secondary (AID 602260); type: functional; conditions: read-out: IC50_Mean
[9] = target: T6, Polyadenylate-binding protein 1; test: PABP1 MLLE–PAM2 binding inhibitor potency, dose response, biochemical, fluorescence polarization, FITC-PAM2 peptide (AID 602259); type: functional; conditions: read-out: IC50_Mean
[10] = HEp-2 cell cytotoxicity, dose response, cytotoxicity control for RSV inhibitor project, HTS (AID 2410); type: functional; conditions: human respiratory syncytial virus
[11] = Luminescence Cell-Based Dose Response HTS to Identify Activators of Luciferase Translation or Activity in H4 […] Cells. [Related pubchem assays: 1829 (Project Summary), 1814 (Primary HTS)]; type: functional
H4 = test: Luminescence Cell-Based Dose Response HTS to Identify Activators of 5'UTR Stem-Loop Driven Prion Protein mRNA Translation in H4 Neuroglioblastoma Cells. [Related pubchem assays: 1829 (Project Summary), 1814 (Primary HTS)]; type: functional; conditions: Homo sapiens
Paired box protein Pax-8 = Paired box protein Pax-8 (Homo sapiens, UniProt Q06710); test: inhibitors of PAX8-driven TPO luciferase reporter, dose response, RMG-I cells, cherry-pick (AID 687027); type: functional, cell-based;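 also: luciferase reporter driven by Pax8 target thyroperoxidase promoter measured by SteadyGlo luminescence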
[12] = cytotoxicity in OVCAR8 ovarian cancer cells, dose response, PAX8 project, cell-based, plate reader, dry powder samples (AID 743197); type: functional; conditions: OVCAR-8

Chain of Induced myeloid leukemia cell differentiation protein Mcl-1 (Q07820 whole entry): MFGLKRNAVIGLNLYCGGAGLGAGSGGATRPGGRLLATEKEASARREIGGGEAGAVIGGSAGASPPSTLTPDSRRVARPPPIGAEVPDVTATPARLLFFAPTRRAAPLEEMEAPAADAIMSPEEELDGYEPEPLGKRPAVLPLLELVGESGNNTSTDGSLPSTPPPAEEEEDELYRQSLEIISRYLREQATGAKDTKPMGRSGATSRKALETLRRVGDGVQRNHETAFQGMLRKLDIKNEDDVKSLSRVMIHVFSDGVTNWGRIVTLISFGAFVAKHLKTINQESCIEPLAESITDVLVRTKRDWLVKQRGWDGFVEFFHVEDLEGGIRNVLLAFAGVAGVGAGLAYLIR
Chain of DNA dC->dU-editing enzyme APOBEC-3G (Q9HC16 whole entry): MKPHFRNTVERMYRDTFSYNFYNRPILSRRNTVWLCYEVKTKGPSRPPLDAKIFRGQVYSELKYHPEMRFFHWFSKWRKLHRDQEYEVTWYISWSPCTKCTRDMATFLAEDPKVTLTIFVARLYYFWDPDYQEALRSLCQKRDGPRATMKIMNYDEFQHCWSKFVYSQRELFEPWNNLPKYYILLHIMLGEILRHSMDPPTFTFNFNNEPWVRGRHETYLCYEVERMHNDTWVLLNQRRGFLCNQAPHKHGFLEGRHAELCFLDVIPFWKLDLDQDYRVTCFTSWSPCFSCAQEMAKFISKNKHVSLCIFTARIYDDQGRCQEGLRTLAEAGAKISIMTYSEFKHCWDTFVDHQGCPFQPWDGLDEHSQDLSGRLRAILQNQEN
Chain of Paired box protein Pax-8 (Q06710 whole entry): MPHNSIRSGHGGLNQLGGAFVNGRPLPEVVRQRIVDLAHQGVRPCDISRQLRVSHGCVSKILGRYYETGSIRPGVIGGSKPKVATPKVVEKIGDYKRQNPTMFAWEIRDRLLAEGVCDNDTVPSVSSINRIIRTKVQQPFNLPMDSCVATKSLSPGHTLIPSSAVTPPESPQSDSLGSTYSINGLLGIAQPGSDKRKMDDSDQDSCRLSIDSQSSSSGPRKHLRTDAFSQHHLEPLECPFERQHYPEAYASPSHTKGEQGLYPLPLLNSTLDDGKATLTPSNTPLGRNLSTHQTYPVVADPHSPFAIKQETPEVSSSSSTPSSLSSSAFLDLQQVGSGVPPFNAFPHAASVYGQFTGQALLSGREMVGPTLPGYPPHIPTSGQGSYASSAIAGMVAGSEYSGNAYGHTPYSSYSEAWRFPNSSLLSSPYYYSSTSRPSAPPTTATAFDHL
T6 sequence (P11940 whole entry): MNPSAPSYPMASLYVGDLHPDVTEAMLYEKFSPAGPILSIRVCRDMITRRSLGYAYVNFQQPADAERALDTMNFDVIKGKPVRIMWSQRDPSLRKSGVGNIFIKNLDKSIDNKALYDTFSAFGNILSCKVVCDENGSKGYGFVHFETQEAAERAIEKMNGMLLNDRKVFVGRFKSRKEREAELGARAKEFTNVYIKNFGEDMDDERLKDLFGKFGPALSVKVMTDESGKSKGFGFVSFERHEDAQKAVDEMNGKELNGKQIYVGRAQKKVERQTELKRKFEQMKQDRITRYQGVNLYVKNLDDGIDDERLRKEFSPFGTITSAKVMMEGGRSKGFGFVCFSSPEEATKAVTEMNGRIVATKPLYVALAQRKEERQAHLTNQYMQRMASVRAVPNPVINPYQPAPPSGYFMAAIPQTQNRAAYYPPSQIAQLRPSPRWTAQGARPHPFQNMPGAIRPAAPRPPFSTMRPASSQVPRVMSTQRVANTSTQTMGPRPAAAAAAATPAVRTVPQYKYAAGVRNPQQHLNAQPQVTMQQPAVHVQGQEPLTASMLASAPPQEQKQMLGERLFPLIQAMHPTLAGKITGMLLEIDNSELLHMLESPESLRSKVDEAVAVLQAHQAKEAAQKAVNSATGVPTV

For `Cc1ccccc1-c1nc2sc3c(c2c(=O)o1)CCC3`, the IC50 (Caspase-3) was 1.73 µM (active), the IC50 [1] was 2.23 µM (active) and the IC50 [2] was 3.42 µM (active). The IC50 [3] was > 100 µM (inactive).

In the case of `O=c1c2ccccc2nnn1CSc1nc2sc3c(c2c(=O)n1CC1CCCO1)CCC3` (stereo not drawn), the IC50 [4] is reported as 15.8 µM (active).

In the case of `Cc1ccc(-n2nc3ccc(NC(=O)C(C)C)cc3n2)cc1`, the AC50 (HeLa) is reported as 54.8 µM (active).

For `O=C(O)CC(Sc1nnc(S)s1)C(=O)O` (stereo not drawn), the IC50 [5] was 45.1 µM (active).

With `COc1cccc(CN(C)C(=O)c2ccc(COc3ccc(Cl)cc3)cc2)c1OC` the AC50 (HeLa) was 54.8 µM (active).

For `CC1=C(C(=O)OCC(C)C)C(c2ccsc2)NC(=O)N1` (stereo not drawn), the IC50 [6] was 2.4 µM (not active).

In the case of `Cc1ccc(-c2cccc(CN3CCN(C(C)C)C(CCO)C3)c2)o1` (stereo not drawn), the IC50 [4] is reported as 7.85 µM (active).

With `C=CCn1c(O)c(N=NC(S)=Nc2ccccc2F)c2ccccc21` the EC50 [7] was 0.628 µM (active), the EC50 (Streptococcus) was 1.08 µM (active) and the AC50 (HEK293) was 2.88 µM (active). The CC50 (Vero) was 18.2 µM (active), the IC50 [8] was > 66 µM (inactive) and the IC50 [9] was > 66 µM (inactive).

In the case of `COc1ccccc1-c1cnn2c(NC3CCCC3)cc(C)nc12`, the CC50 [10] is reported as 40 µM (active), the EC50 [11] is reported as 0.139 µM (active) and the EC50 (H4) is reported as 16.2 µM (active). For the same compound, the AC50 (HeLa) was 117 µM (active).

For `Cc1nc(C(C)NC(=O)CCc2nnc(CCCc3ccccc3)o2)c(C)s1` (stereo not drawn), the AC50 (HeLa) was 314 µM (active).

With `CCn1c(S)nnc1CCCCc1nnc(S)n1CC` the IC50 [5] was 25.8 µM (active).

In the case of `Cn1c(SCc2ccccc2Cl)nc2ccccc21`, the AC50 (HeLa) is reported as 75 µM (active).

With `COc1cc(SC)ccc1C(=O)N1CCN(c2ccccc2)CC1` the IC50 [6] was < 0.4 µM (not active).

In the case of `Cc1ccc(SCC2=NN(c3nc(C)cc(C)n3)C(=O)C2)cc1`, the IC50 [4] is reported as 10.5 µM (active).

For `CC(C)OC(=O)Cn1cnc2ccc(Br)cc2c1=O`, the IC50 [6] was 24.1 µM (not active).

With `COc1ccc(NC(C)=O)cc1S(=O)(=O)Nc1ccccc1C(=O)NCCc1ccccc1` the EC50 [11] was 0.519 µM (active), the EC50 (H4) was 50.7 µM (active) and the AC50 (HeLa) was 230 µM (active).

With `CCOC(=O)c1c(C)oc2c1c(C(c1ccncc1)N1CCOCC1)c(O)c1ccccc12` (stereo not drawn) the IC50 [6] was 1.16 µM (active).

In the case of `COc1ccc(N2C(=O)CC(Sc3n[nH]c(-c4ccc(C)cc4)n3)C2=O)cc1` (stereo not drawn), the IC50 [5] is reported as 21.2 µM (active).

For `CN1c2ccc(-c3cccc(F)c3)cc2[C@@H]2[C@@H](CCN2C(=O)Cc2ccccc2)[C@@H]1CO`, the AC50 (Paired box protein Pax-8) was 10.2 µM (active) and the AC50 [12] was > 70 µM (inactive).

With `C[C@@H]1CN([C@@H](C)CO)C(=O)c2cc(NS(=O)(=O)c3ccc(F)cc3)ccc2O[C@@H]1CN(C)Cc1ccc(C(F)(F)F)cc1` the AC50 (Paired box protein Pax-8) was 15.3 µM (active) and the AC50 [12] was 49.5 µM (active).

With `COc1ccc(-c2ccc3c(c2)[C@@H]2[C@@H](CCN2C(=O)C2CCCC2)[C@H](CO)N3C)cc1` the AC50 (Paired box protein Pax-8) was 14.2 µM (active) and the AC50 [12] was > 70 µM (inactive).

In the case of `O=C(N/N=C/C1CC=CCC1)c1cc(-c2cccnc2)nc2ccccc12` (stereo not drawn), the IC50 [4] is reported as 15.1 µM (active).

Reference: ChEMBL document CHEMBL1201862, “PubChem BioAssay data set” (2004)
